Experimental findings from patent US10189819B2, “Factor IXa inhibitors” (MERCK SHARP & DOHME CORP., priority 2014, dated 2019) are described below.

For this assay, the target named is Factor IXa (Homo sapiens (Human), UniProt P00740). The assay can be described thus: Determination of inhibitory activity against Factor IXa (cleavage of fluorescent peptide CH3SO2-D-CHG-Gly-Arg-AFC). It is filed as biochemical. On the procedure: Determination of Inhibitory Activity Against Factor IXa
Formation of a clot to stem bleeding at a site of blood vessel injury involves the coordinated activity of a group of plasma proteins that initiate and propagate fibrin formation and subsequently protect fibrin from premature degradation. Factor IX is a key component of the plasma system that forms a fibrin clot at a site of vascular injury. The activity of Factor IXa is measured by monitoring the cleavage of the fluorescent peptide, CH3SO2-D-CHG-Gly-Arg-AFC.AcOH (“CHG” is cyclohexyl-glycine and “AFC” is trifluoro aminomethyl coumarin). Factor IXa cleaves the amide bond between Arg and AFC, thereby releasing the AFC fluorophore. The free AFC can be detected with a fluorescence detector at an excitation wavelength of 405 nm and emission wavelength of 510 nm.

Structures are written as SMILES. Like-named read-outs stand apart in the source and are kept apart here.

Sequence of Factor IXa (P00740 227-461): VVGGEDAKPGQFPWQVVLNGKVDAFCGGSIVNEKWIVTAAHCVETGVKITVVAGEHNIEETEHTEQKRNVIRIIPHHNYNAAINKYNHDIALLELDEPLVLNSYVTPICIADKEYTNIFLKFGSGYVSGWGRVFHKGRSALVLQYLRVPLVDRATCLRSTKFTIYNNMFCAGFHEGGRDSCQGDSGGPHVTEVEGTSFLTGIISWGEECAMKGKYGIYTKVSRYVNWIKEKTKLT
Sequence of Factor IXa (P00740 47-191 partner): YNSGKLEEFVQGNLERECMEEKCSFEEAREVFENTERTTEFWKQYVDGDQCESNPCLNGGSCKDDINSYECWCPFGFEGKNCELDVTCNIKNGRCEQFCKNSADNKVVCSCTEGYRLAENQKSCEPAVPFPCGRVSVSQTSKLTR

Broadly, the IC50 is the concentration needed to halve the response being measured. With `Cc1ncn(-c2cc(Cl)c(C(=O)NC[C@@H](c3cccc(F)c3)c3nc4ccc(Cl)cc4[nH]3)c(Cl)c2)n1` [Example 46], the IC50 (read-out: hFIXa IC50) is 9.78 nM.

`Cc1ncn(-c2cc(Cl)c(C(=O)NCC(c3cccc(F)c3)c3nc4c(C)cc(Cl)cc4[nH]3)c(Cl)c2)n1` (stereo not drawn) [Example 47]: under “read-out: hFIXa IC50”, the IC50 was determined as 6.18 nM.

As for `COc1cc2nc(C(CNC(=O)c3c(Cl)cc(-n4cnc(C)n4)cc3Cl)c3cccc(F)c3)[nH]c2cc1Cl` (stereo not drawn) [Example 48], where the note is “read-out: hFIXa IC50”, the concentration for half-maximal inhibition (IC50) was determined as 2.86 nM. The same measure, in the same setting: as for `COc1ccc2nc(C(CNC(=O)c3c(Cl)cc(-n4cnc(C)n4)cc3Cl)c3cccc(F)c3)[nH]c2c1` (stereo not drawn) [Example 49], the figure is 49.1 nM; as for `Cc1cc2nc(C(CNC(=O)c3ccc(-n4cnnc4)cc3Cl)c3cccc(F)c3)[nH]c2cc1C` (stereo not drawn) [Example 50], 5.69 nM.

As for `Cc1cc2nc(C(CNC(=O)c3ccc(-n4cnnc4)cc3Cl)c3ccccc3F)[nH]c2cc1C` (stereo not drawn) [Example 51], the IC50 (read-out: hFIXa IC50) worked out at 19.3 nM. Regarding `Cc1cc2nc(C(CNC(=O)c3ccc(-n4cnnc4)cc3Cl)c3ccc(F)cc3)[nH]c2cc1C` (stereo not drawn) [Example 52], the IC50 (read-out: hFIXa IC50) turned out to be 8.42 nM. Same read-out and setting: as for `Cc1cc2nc(C(CNC(=O)c3c(Cl)cc(-n4cnnc4)cc3Cl)c3ccc(F)cc3)[nH]c2cc1C` (stereo not drawn) [Example 53], the figure is 2.82 nM. Same read-out and setting: in the case of `Cc1ncn(-c2ccc(C(=O)NCC(c3ccc(C(F)(F)F)nc3)c3nc4cc(C)c(C)cc4[nH]3)c(Cl)c2)n1` (stereo not drawn) [Example 55] it was 427 nM; in that of `Cc1cc2nc(C(CNC(=O)c3ccc(-n4cnnc4)cc3Cl)c3cccnc3)[nH]c2cc1C` (stereo not drawn) [Example 56], 15.3 nM; in that of `COc1cc2nc([C@@H](CNC(=O)c3c(Cl)cc(-n4cnc(C)n4)cc3Cl)c3cnc(N(C)C)nc3)[nH]c2cc1Cl` [Example 57], 8.76 nM. Still for that read-out and setting: in the case of `COc1cc2nc([C@@H](CNC(=O)c3c(Cl)cc(-n4cnc(C)n4)cc3Cl)c3ccc(C(N)=O)cc3)[nH]c2cc1Cl` [Example 58] it was 2.36 nM; in that of `COc1cc2nc(C(CNC(=O)c3c(Cl)cc(-n4cnc(C)n4)cc3Cl)c3cccc(C(=O)O)c3)[nH]c2cc1Cl` (stereo not drawn) [Example 59], 1.5 nM.

For `COc1cc2nc([C@@H](CNC(=O)c3c(Cl)cc(-n4cnc(C)n4)cc3Cl)c3ccc(C(=O)O)cc3)[nH]c2cc1Cl` [Example 60], under “read-out: hFIXa IC50”, the half-maximal inhibitory concentration (IC50) worked out at 4.79 nM. As to `CNC(=O)c1cccc([C@H](CNC(=O)c2c(Cl)cc(-n3cnc(C)n3)cc2Cl)c2nc3cc(OC)c(Cl)cc3[nH]2)c1` [Example 61], the concentration for half-maximal inhibition (IC50) (read-out: hFIXa IC50) was 4.78 nM.

In the case of `COc1cc2nc(C(CNC(=O)c3c(Cl)cc(-n4cnc(C)n4)cc3Cl)c3cccc(CC(=O)O)c3)[nH]c2cc1Cl` (stereo not drawn) [Example 62], the 50% inhibitory concentration (IC50) (read-out: hFIXa IC50) stood at 1.75 nM.

For `COc1cc2nc([C@@H](CNC(=O)c3c(Cl)cc(-n4cnc(C)n4)cc3Cl)c3ccc(C(=O)N(C)C)cc3)[nH]c2cc1Cl` [Example 63], the IC50 (read-out: hFIXa IC50) is 27.7 nM. Still for that read-out and setting: as for `COC(=O)Cc1cccc(C(CNC(=O)c2c(Cl)cc(-n3cnc(C)n3)cc2Cl)c2nc3cc(OC)c(Cl)cc3[nH]2)c1` (stereo not drawn) [Example 64], the figure is 6.1 nM; as for `CCOC(=O)c1ccc([C@H](CNC(=O)c2c(Cl)cc(-n3cnc(C)n3)cc2Cl)c2nc3cc(OC)c(Cl)cc3[nH]2)cc1` [Example 65], 5.6 nM. Same read-out and setting: as for `CCOC(=O)c1cccc([C@H](CNC(=O)c2c(Cl)cc(-n3cnc(C)n3)cc2Cl)c2nc3cc(OC)c(Cl)cc3[nH]2)c1` [Example 66], the figure is 16.8 nM.

For `COc1cc2nc([C@@H](CNC(=O)c3c(Cl)cc(-n4cnc(C)n4)cc3Cl)c3cccc(C(=O)NC4CC4)c3)[nH]c2cc1Cl` [Example 67], the IC50 (read-out: hFIXa IC50) stood at 2.9 nM. The same measure, in the same setting: in the case of `Cc1cc2nc(C(CNC(=O)c3ccc(-n4cnnc4)cc3Cl)c3cccc(F)c3)oc2cc1C` (stereo not drawn) [Example 68] it was 71.9 nM.

As to `Cc1cc2nc([C@@](C)(CNC(=O)c3c(Cl)cc(-n4cnnc4)cc3Cl)c3ccc(F)cc3)[nH]c2cc1C` [Example 70], under “read-out: FIXa IC50”, the IC50 was 5.6 nM. With `COc1cc2nc([C@@H](CNC(=O)c3c(Cl)cc(-n4cnc(C)n4)cc3Cl)n3cc(CN(C)C)nn3)[nH]c2cc1Cl` [Example 72], the IC50 (read-out: hFIXa IC50) is 67.2 nM. On the same count and under the same terms, as for `COc1cc2nc(C(CNC(=O)c3c(Cl)cc(-n4cnc(C)n4)cc3Cl)n3cc(C(C)(C)O)nn3)[nH]c2cc1Cl` (stereo not drawn) [Example 73], the figure is 34.4 nM. For the molecule `Cc1cc2cc([C@@H](CNC(=O)c3c(Cl)cc(-n4cnnc4)cc3Cl)c3ccccc3)[nH]c2cc1C` [Example 74, (R)-2,6-dichloro-N-(2-(5,6-dimethyl-1H-indol-2-yl)-2-phenylethyl)-4-(4H-1,2,4-triazol-4-yl)benzamide], the IC50 (read-out: FIXa IC50) stood at 29.1 nM. Take `Cc1ncn(-c2cc(Cl)c(C(=O)NC[C@@H](c3cccc(F)c3)c3ccc4[nH]c(C)nc4c3)c(Cl)c2)n1` [Example 75, (R)-2,6-dichloro-N-(2-(3-fluorophenyl)-2-(2-methyl-1H-benzo[d]imidazol-5-yl)ethyl)-4-(3-methyl-1H-1,2,4-triazol-1-yl)benzamide]: the IC50 (read-out: FIXa IC50) came out at 9.1 nM. `Cc1ncn(-c2cc(Cl)c(C(=O)NC[C@@H](c3cccc(F)c3)c3cnc4[nH]c(C)nc4c3)c(Cl)c2)n1` [Example 76, (S)-2,6-dichloro-N-(2-(3-fluorophenyl)-2-(2-methyl-3H-imidazo[4,5-b]pyridin-6-yl)ethyl)-4-(3-methyl-1H-1,2,4-triazol-1-yl)benzamide]: the IC50 (read-out: FIXa IC50) worked out at 80.6 nM.

As to `Cc1ncn(-c2cc(Cl)c(C(=O)NC[C@@H](c3cccc(F)c3)c3cnc4[nH]c(C)cc4c3)c(Cl)c2)n1` [Example 77], the IC50 (read-out: hFIXa IC50) amounted to 3.7 nM.

As to `Cc1ncn(-c2cc(Cl)c(C(=O)NC[C@@H](c3cccc(F)c3)c3ccc4[nH]c(C)nc4c3F)c(Cl)c2)n1` [Example 78], the 50% inhibitory concentration (IC50) (read-out: hFIXa IC50) worked out at 1.93 nM. `Cc1ncn(-c2cc(Cl)c(C(=O)NC[C@@H](c3cccc(F)c3)c3cc(F)c4[nH]c(C)nc4c3)c(Cl)c2)n1` [Example 79]: the IC50 (read-out: hFIXa IC50) is 6.42 nM.

Consider `Cc1ncn(-c2cc(Cl)c(C(=O)NC[C@@H](c3cccc(F)c3)c3ccc4[nH]c(C)nc4n3)c(Cl)c2)n1` [Example 80], for which the IC50 (read-out: hFIXa IC50) is 16.9 nM. On the same count and under the same terms, as for `Cc1ncn(-c2cc(Cl)c(C(=O)NCC(c3cccc(F)c3)c3cc4nc(C)[nH]c4cn3)c(Cl)c2)n1` (stereo not drawn) [Example 81], the figure is 126 nM. Consider `Cc1ncn(-c2cc(Cl)c(C(=O)NC[C@@H](c3cccc(F)c3)c3cc(C)c4[nH]c(C)nc4c3)c(Cl)c2)n1` [Example 82], for which the IC50 (read-out: hFIXa IC50) came to 75.2 nM. For `Cc1ncn(-c2cc(Cl)c(C(=O)NC[C@@H](c3cccc(F)c3)c3ccc4sc(C)nc4c3)c(Cl)c2)n1` [Example 83, (R)-2,6-dichloro-N-(2-(3-fluorophenyl)-2-(2-methylbenzo[d]thiazol-5-yl)ethyl)-4-(3-methyl-1H-1,2,4-triazol-1-yl)benzamide], for the setting “read-out: FIXa IC50”, the IC50 stood at 59.5 nM. Same read-out and setting: as for `Cc1ccc2nn([C@@H](CNC(=O)c3ccc(-n4cnnc4)cc3Cl)c3ccccc3)cc2c1` [Example 84, (R)-2-chloro-N-(2-(5-methyl-2H-indazol-2-yl)-2-phenylethyl)-4-(4H-1,2,4-triazol-4-yl)benzamide], the figure is 240 nM; as for `Cc1ccc2c(cnn2[C@H](CNC(=O)c2ccc(-n3cnnc3)cc2Cl)c2ccccc2)c1` [Example 85, (S)-2-chloro-N-(2-(5-methyl-1H-indazol-1-yl)-2-phenylethyl)-4-(4H-1,2,4-triazol-4-yl)benzamide], 38 nM. As for `Cc1ccc2c(cnn2[C@H](CNC(=O)c2c(Cl)cc(-n3cc(CCO)nn3)cc2Cl)c2cnco2)c1` [Example 86, (R)-2,6-dichloro-4-(4-(2-hydroxyethyl)-1H-1,2,3-triazol-1-yl)-N-(2-(5-methyl-1H-indazol-1-yl)-2-(oxazol-5-yl)ethyl)benzamide], under “read-out: FIXa IC50”, the IC50 was 7 nM. As to `Cc1ccc2c([C@H](CNC(=O)c3ccc(-n4cnnc4)cc3Cl)c3cccc(F)c3)c[nH]c2c1` [Example 87], the half-maximal inhibitory concentration (IC50) (read-out: hFIXa IC50) worked out at 31.1 nM. Take `Cc1ccc2c([C@H](CNC(=O)c3ccc(-n4cnnc4)cc3Cl)c3ccccc3)n[nH]c2c1` [Example 88, (S)-2-chloro-N-(2-(6-methyl-1H-indazol-3-yl)-2-phenylethyl)-4-(4H-1,2,4-triazol-4-yl)benzamide]: the half-inhibitory concentration (IC50) (read-out: FIXa IC50) is 68.8 nM. On the same count and under the same terms, in the case of `Cc1ccc2nn([C@@H](CNC(=O)c3c(Cl)cc(-n4cnnc4)cc3Cl)c3ccccc3)nc2c1` [Example 89, (R)-2,6-dichloro-N-(2-(5-methyl-2H-benzo[d][1,2,3]triazol-2-yl)-2-phenylethyl)-4-(4H-1,2,4-triazol-4-yl)benzamide] it was 20.9 nM; in that of `Cc1ccc2c(c1)nnn2[C@H](CNC(=O)c1c(Cl)cc(-n2cnnc2)cc1Cl)c1ccccc1` [Example 90, (S)-2,6-dichloro-N-(2-(5-methyl-1H-benzo[d][1,2,3]triazol-1-yl)-2-phenylethyl)-4-(4H-1,2,4-triazol-4-yl)benzamide], 38 nM. On the same count and under the same terms, as for `Cc1ccc2nc([C@@H](CNC(=O)c3ccc(-n4cnnc4)cc3Cl)c3ccccc3)[nH]c(=O)c2c1` [Example 91, (R)-2-Chloro-N-(2-(6-methyl-4-oxo-3,4-dihydroquinazolin-2-yl)-2-phenylethyl)-4-(4H-1,2,4-triazol-4-yl)benzamide], the figure is 189 nM. `Cc1ncn(-c2cc(Cl)c(C(=O)NC[C@@H](c3cccc(F)c3)c3nc4c(F)ccc(C)c4c(=O)[nH]3)c(Cl)c2)n1` [Example 92, (R)-2,6-dichloro-N-(2-(8-fluoro-5-methyl-4-oxo-3,4-dihydroquinazolin-2-yl)-2-(3-fluorophenyl)ethyl)-4-(3-methyl-1H-1,2,4-triazol-1-yl)benzamide]: the IC50 (read-out: FIXa IC50) came out at 1 nM.

For the molecule `Cc1ncn(-c2cc(Cl)c(C(=O)NC[C@@H](c3ccc(F)cc3)c3nc4c(F)ccc(C)c4c(=O)[nH]3)c(Cl)c2)n1` [Example 93, (R)-2,6-dichloro-N-(2-(8-fluoro-5-methyl-4-oxo-3,4-dihydroquinazolin-2-yl)-2-(4-fluorophenyl)ethyl)-4-(3-methyl-1H-1,2,4-triazol-1-yl)benzamide], where the note is “read-out: FIXa IC50”, the IC50 came to 4.6 nM.
